Measurements: patent US20250179083A1, “TRICYCLIC TRIAZOLO COMPOUNDS AS DGK INHIBITORS” (Incyte Corporation, priority 2023, published 2025)

Legend:
DGKζ = molecular target: T1, DGKζ (Homo sapiens, UniProt Q13574); assay: In vitro DGKζ inhibition assay (ADP-Glo); format: biochemical; details: His-tagged human recombinant DGKζ 0.4 nM, 30 μM ATP, 20 μM DLG, 90 minute incubation
T1 construct: His; purchased Signal Chem D30-10H
Description: (§1) The DGKα and DGKζ biochemical reactions were performed using His-tagged human recombinant enzymes (Signal Chem, DGKα, #D21-10BH; DGKζ, #D30-10H)) and DLG (Dilauroyl-sn-glycerol) lipid substrate (Signal Chem, #D430-59). ADP-Glo assay was performed using ADP-Glo™ kinase Assay kit (Promega, #V9104). The reactions were carried out in assay buffer containing 40 mM Tris, pH 7.5, 0.1% CHAPS, 0.1% Prionex, 40 mM NaCl, 5 mM MgCl2, 1 mM CaCl2, and 1 mM DTT. DGKα reactions contained 0.1 nM DGKα, 50 μM ATP, and 20 μM DLG. And DGKζ reactions contained 0.4 nM DGKζ, 30 μM ATP, and 20 μM DLG.
(§2) Compounds were added with top concentration of 2 mM with 11 point, 3-fold dilution series. Enzyme solution (contains 2×DGK enzyme concentration in 1× assay buffer) was added to the plate in 2 μL/well volume, followed by 2 μL/well of substrate solution (contains 2× concentration of ATP and DLG substrate in 1× assay buffer). Plates were then centrifuged for 1 min at 1200 RPM and sealed or lidded. For 4 μL reaction volume, test compounds were therefore diluted 100× to final top concentration of 20 μM. After 90 minute incubation, reactions were quenched by addition of 2 μL/well Promega ADP-Glo Reagent, followed by centrifugation and lidding. After 60 min incubation, 2 μL/well Promega Kinase Detection Reagent was added, plates centrifuged, and incubated for 30 min. Plates were then read using Luminescence method on BMG PHERAstar FSX plate reader. Percent inhibition was calculated and IC50s were determined using 4-parameter fit in Genedata Screener. Labcyte Echo acoustic dispenser was used for compound addition, and Formulatrix Tempest liquid handler was used for all reagent dispenses.

DGKα = molecular target: T2, DGKα (Homo sapiens, UniProt P23743); assay: In vitro DGKα inhibition assay (ADP-Glo); format: biochemical; details: His-tagged human recombinant DGKα 0.1 nM, 50 μM ATP, 20 μM DLG, 90 minute incubation
T2 construct: His; purchased Signal Chem D21-10BH
Description: as §1, §2

T1 sequence (Q13574 whole entry): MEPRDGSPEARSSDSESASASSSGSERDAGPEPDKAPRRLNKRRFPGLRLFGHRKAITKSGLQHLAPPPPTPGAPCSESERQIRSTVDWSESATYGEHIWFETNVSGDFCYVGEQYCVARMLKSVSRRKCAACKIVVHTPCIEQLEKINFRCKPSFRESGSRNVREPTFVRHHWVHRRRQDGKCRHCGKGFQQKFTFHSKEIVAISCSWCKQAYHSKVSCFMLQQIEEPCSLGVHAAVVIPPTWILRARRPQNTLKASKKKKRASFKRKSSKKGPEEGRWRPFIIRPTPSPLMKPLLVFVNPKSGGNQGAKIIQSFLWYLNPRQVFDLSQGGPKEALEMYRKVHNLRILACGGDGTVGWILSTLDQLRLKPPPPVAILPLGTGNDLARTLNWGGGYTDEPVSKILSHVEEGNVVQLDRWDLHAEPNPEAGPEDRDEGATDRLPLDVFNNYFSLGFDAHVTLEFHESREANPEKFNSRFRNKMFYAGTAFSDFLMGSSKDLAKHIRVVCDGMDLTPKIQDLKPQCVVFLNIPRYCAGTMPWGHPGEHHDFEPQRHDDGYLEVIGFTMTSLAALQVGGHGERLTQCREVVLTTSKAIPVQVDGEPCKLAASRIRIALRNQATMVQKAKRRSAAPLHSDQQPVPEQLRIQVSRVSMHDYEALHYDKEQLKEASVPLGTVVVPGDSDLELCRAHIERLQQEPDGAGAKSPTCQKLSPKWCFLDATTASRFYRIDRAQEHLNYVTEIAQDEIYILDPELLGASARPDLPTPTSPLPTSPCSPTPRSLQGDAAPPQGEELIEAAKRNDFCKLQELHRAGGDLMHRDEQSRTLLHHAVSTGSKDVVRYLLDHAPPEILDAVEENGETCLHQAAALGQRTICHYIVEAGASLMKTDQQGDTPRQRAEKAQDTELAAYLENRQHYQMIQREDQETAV
T2 sequence (P23743 whole entry): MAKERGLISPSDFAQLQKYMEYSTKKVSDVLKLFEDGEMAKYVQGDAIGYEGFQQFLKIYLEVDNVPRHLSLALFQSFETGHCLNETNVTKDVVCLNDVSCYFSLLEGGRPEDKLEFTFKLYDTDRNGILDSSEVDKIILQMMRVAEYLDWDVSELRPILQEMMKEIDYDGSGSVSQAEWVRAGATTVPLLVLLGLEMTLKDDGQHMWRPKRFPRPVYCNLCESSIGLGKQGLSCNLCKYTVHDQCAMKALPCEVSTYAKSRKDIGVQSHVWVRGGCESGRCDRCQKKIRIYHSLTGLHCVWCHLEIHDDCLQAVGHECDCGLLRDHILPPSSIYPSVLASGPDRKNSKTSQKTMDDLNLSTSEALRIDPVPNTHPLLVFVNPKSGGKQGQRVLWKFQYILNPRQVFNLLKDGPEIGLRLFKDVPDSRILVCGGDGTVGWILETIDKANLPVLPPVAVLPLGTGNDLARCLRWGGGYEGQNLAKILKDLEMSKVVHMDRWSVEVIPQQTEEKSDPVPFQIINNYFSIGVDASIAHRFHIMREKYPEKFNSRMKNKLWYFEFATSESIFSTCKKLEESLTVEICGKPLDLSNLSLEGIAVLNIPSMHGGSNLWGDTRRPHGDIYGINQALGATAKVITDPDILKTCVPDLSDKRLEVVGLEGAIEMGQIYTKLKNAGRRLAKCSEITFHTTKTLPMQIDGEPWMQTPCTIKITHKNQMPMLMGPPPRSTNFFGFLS

SMILES | IC50 (DGKζ) [µM] | IC50 (DGKα) [µM]
C[C@@H]1CN(c2nc3nncn3c3c2ncn3C[C@@H]2CCCO2)[C@@H](C)CN1Cc1ccc(C(F)(F)F)cc1 [Example 40, 4-((2S,5R)-2,5-Dimethyl-4-(4-(trifluoromethyl)benzyl)piperazin-1-yl)-1-(((S)-tetrahydrofuran-2-yl)methyl)-1H-[1,2,4]triazolo[3,4-b]purine] | < 0.02 | < 0.02
CC[C@@H]1CN(c2nc3nncn3c3c2nc(C)n3C[C@@H]2CCCO2)[C@@H](C)CN1[C@@H](C)c1ccc(C(F)(F)F)cc1 [Example 41, 4-((2S,5R)-5-Ethyl-2-methyl-4-((S)-1-(4-(trifluoromethyl)phenyl)ethyl)piperazin-1-yl)-2-methyl-1-(((S)-tetrahydrofuran-2-yl)methyl)-1H-[1,2,4]triazolo[3,4-b]purine] | < 0.02 | < 0.02
CC[C@@H]1CN(c2nc3nncn3c3c2nc(C)n3C[C@@H]2CCCO2)[C@@H](C)CN1[C@H](C)c1ccc(C(F)(F)F)cc1 [Example 42, 4-((2S,5R)-5-ethyl-2-methyl-4-((R)-1-(4-(trifluoromethyl)phenyl)ethyl)piperazin-1-yl)-2-methyl-1-(((S)-tetrahydrofuran-2-yl)methyl)-1H-[1,2,4]triazolo[3,4-b]purine] | < 0.02 | < 0.02
C[C@@H]1CN(c2cc3nncn3c3c2ncn3C[C@@H]2CCCO2)[C@@H](C)CN1C(c1ccc(F)cc1)c1ccc(F)cc1 [Example 43, 4-((2S,5R)-4-(Bis(4-fluorophenyl)methyl)-2,5-dimethylpiperazin-1-yl)-1-(((S)-tetrahydrofuran-2-yl)methyl)-1H-imidazo[4,5-e][1,2,4]triazolo[4,3-a]pyridine] | < 0.02 | < 0.02
C[C@@H]1CN(c2nc3nncn3c3c2ncn3CC2(O)CCCC2)[C@@H](C)CN1C(c1ccc(Cl)cc1)c1ccc(Cl)cc1 [Example 44, 1-((4-((2S,5R)-4-(Bis(4-chlorophenyl)methyl)-2,5-dimethylpiperazin-1-yl)-1H-[1,2,4]triazolo[3,4-b]purin-1-yl)methyl)cyclopentan-1-ol] | < 0.02 | < 0.02
C[C@@H]1CN(c2nc3nncn3c3c2ncn3CC2(O)CCCC2)[C@@H](C)CN1C(c1ccc(Cl)cc1)C1CC(F)(F)C1 (stereo partly drawn) [Example 45, 1-((4-((2S,5R)-4-((4-Chlorophenyl)(3,3-difluorocyclobutyl)methyl)-2,5-dimethylpiperazin-1-yl)-1H-[1,2,4]triazolo[3,4-b]purin-1-yl)methyl)cyclopentan-1-ol] | < 0.02 | < 0.02
C[C@@H]1CN(c2nc3nncn3c3c2ncn3CC2(O)CCCC2)[C@@H](C)CN1C(c1ccc(C(F)(F)F)cc1)C1CC(F)(F)C1 (stereo partly drawn) [Example 46, 1-((4-((2S,5R)-4-((3,3-Difluorocyclobutyl)(4-(trifluoromethyl)phenyl)methyl)-2,5-dimethylpiperazin-1-yl)-1H-[1,2,4]triazolo[3,4-b]purin-1-yl)methyl)cyclopentan-1-ol] | < 0.02 | < 0.02
C[C@@H]1CN(c2nc3nncn3c3c2ncn3C[C@@H]2CCCO2)[C@@H](C)CN1Cc1ccc(Cl)cc1 [Example 47, 4-((2S,5R)-4-(4-Chlorobenzyl)-2,5-dimethylpiperazin-1-yl)-1-(((S)-tetrahydrofuran-2-yl)methyl)-1H-[1,2,4]triazolo[3,4-b]purine] | < 0.02 | < 0.02
C[C@@H]1CN(c2nc3nncn3c3c2ncn3C[C@@H]2CCCO2)[C@@H](C)CN1Cc1ccc(Cl)cc1F [Example 48, 4-((2S,5R)-4-(4-Chloro-2-fluorobenzyl)-2,5-dimethylpiperazin-1-yl)-1-(((S)-tetrahydrofuran-2-yl)methyl)-1H-[1,2,4]triazolo[3,4-b]purine] | < 0.02 | < 0.02
Cc1nc2c(N3C[C@@H](C)N(C(c4ccc(Cl)cc4)C4CC4)C[C@@H]3C)nc3nncn3c2n1C[C@@H]1CCCO1 (stereo partly drawn) [Example 54, 4-((2S,5R)-4-((4-Chlorophenyl)(cyclopropyl)methyl)-2,5-dimethylpiperazin-1-yl)-2-methyl-1-(((S)-tetrahydrofuran-2-yl)methyl)-1H-[1,2,4]triazolo[3,4-b]purine] | < 0.02 | < 0.02
CC[C@@H](c1ccc(Cl)cc1)N1C[C@H](C)N(c2nc3nncn3c3c2ncn3C[C@@H]2CCCO2)C[C@H]1C [Example 57, 4-((2S,5R)-4-((S)-1-(4-Chlorophenyl)propyl)-2,5-dimethylpiperazin-1-yl)-1-(((S)-tetrahydrofuran-2-yl)methyl)-1H-[1,2,4]triazolo[3,4-b]purine] | 0.02 to 0.2 | < 0.02
CC[C@H](c1ccc(Cl)cc1)N1C[C@H](C)N(c2nc3nncn3c3c2ncn3C[C@@H]2CCCO2)C[C@H]1C [Example 58, 4-((2S,5R)-4-((R)-1-(4-chlorophenyl)propyl)-2,5-dimethylpiperazin-1-yl)-1-(((S)-tetrahydrofuran-2-yl)methyl)-1H-[1,2,4]triazolo[3,4-b]purine] | < 0.02 | < 0.02
CC[C@@H](c1ccc(C(F)(F)F)cc1)N1C[C@H](C)N(c2nc3nncn3c3c2ncn3C[C@@H]2CCCO2)C[C@H]1C [Example 59, 4-((2S,5R)-2,5-Dimethyl-4-((S)-1-(4-(trifluoromethyl)phenyl)propyl)piperazin-1-yl)-1-(((S)-tetrahydrofuran-2-yl)methyl)-1H-[1,2,4]triazolo[3,4-b]purine] | < 0.02 | < 0.02
CC[C@H](c1ccc(C(F)(F)F)cc1)N1C[C@H](C)N(c2nc3nncn3c3c2ncn3C[C@@H]2CCCO2)C[C@H]1C [Example 60, 4-((2S,5R)-2,5-dimethyl-4-((R)-1-(4-(trifluoromethyl)phenyl)propyl)piperazin-1-yl)-1-(((S)-tetrahydrofuran-2-yl)methyl)-1H-[1,2,4]triazolo[3,4-b]purine] | < 0.02 | < 0.02
Cc1nc2c(N3C[C@@H](C)N([C@H](c4ccc5cc(C(F)(F)F)ccc5n4)C(C)C)C[C@@H]3C)nc3nncn3c2n1C[C@@H]1CCCO1 [Example 63, 4-((2S,5R)-2,5-Dimethyl-4-((S)-2-methyl-1-(6-(trifluoromethyl)quinolin-2-yl)propyl)piperazin-1-yl)-2-methyl-1-(((S)-tetrahydrofuran-2-yl)methyl)-1H-[1,2,4]triazolo[3,4-b]purine] | < 0.02 | < 0.02
Cc1nc2c(N3C[C@@H](C)N([C@@H](c4ccc5cc(C(F)(F)F)ccc5n4)C(C)C)C[C@@H]3C)nc3nncn3c2n1C[C@@H]1CCCO1 [Example 64, 4-((2S,5R)-2,5-dimethyl-4-((R)-2-methyl-1-(6-(trifluoromethyl)quinolin-2-yl)propyl)piperazin-1-yl)-2-methyl-1-(((S)-tetrahydrofuran-2-yl)methyl)-1H-[1,2,4]triazolo[3,4-b]purine] | < 0.02 | < 0.02
Cc1nc2c(N3C[C@@H](C)N([C@H](c4ccc(Cl)cc4)C(C)C)C[C@@H]3C)cc3nncn3c2n1C[C@@H]1CCCO1 [Example 65, 4-((2S,5R)-4-((S)-1-(4-Chlorophenyl)-2-methylpropyl)-2,5-dimethylpiperazin-1-yl)-2-methyl-1-(((S)-tetrahydrofuran-2-yl)methyl)-1H-imidazo[4,5-e][1,2,4]triazolo[4,3-a]pyridine] | < 0.02 | < 0.02
